Converted amounts (≈) assume the structure as drawn.
Tests used:
Format in all cases: functional
Staphylococcus aureus [1] = experiment: Antimicrobial activity against vancomycin-intermediate Staphylococcus aureus 1287 measured on day 5 by macrodilution method; conditions: Staphylococcus aureus, 1287, 120 h
Staphylococcus aureus [2] = experiment: Antimicrobial activity against methicillin-susceptible Staphylococcus aureus 543 measured on day 30 by macrodilution method
Staphylococcus aureus [3] = experiment: Antimicrobial activity against heterogeneous vancomycin-intermediate Staphylococcus aureus 873 measured on day 40 by macrodilution method
Staphylococcus aureus [4] = experiment: Antimicrobial activity against vancomycin-resistant Staphylococcus aureus 510 measured on day 20 by macrodilution method; conditions: Staphylococcus aureus, 510, 480 h
Staphylococcus aureus [5] = experiment: Antimicrobial activity against vancomycin-intermediate Staphylococcus aureus 555 measured after 10 antibiotic-free subculturing by macrodilution method
Staphylococcus aureus [6] = experiment: Antimicrobial activity against vancomycin-resistant Staphylococcus aureus 509 measured on day 35 by macrodilution method
Staphylococcus aureus [7] = experiment: Antimicrobial activity against methicillin-susceptible Staphylococcus aureus 540 measured on day 50 by macrodilution method
Staphylococcus aureus [8] = experiment: Antimicrobial activity against methicillin-susceptible Staphylococcus aureus 543 measured on day 15 by macrodilution method; conditions: Staphylococcus aureus, 543, 360 h
Staphylococcus aureus [9] = experiment: Antimicrobial activity against vancomycin-resistant Staphylococcus aureus 509 measured on day 25 by macrodilution method; conditions: Staphylococcus aureus, 509, 600 h
Staphylococcus aureus [10] = experiment: Antimicrobial activity against vancomycin-resistant Staphylococcus aureus 510 measured on day 45 by macrodilution method
Staphylococcus aureus [11] = experiment: Antimicrobial activity against vancomycin-intermediate Staphylococcus aureus 555 measured on day 25 by macrodilution method; conditions: Staphylococcus aureus, 555, 600 h
Staphylococcus aureus [12] = experiment: Antimicrobial activity against heterogeneous vancomycin-intermediate Staphylococcus aureus 873 measured on day 45 by macrodilution method
Staphylococcus aureus [13] = experiment: Antimicrobial activity against heterogeneous vancomycin-intermediate Staphylococcus aureus 168 measured on day 20 by macrodilution method; conditions: Staphylococcus aureus, 168, 480 h
Staphylococcus aureus [14] = experiment: Antimicrobial activity against methicillin-resistant Staphylococcus aureus 525 measured on day 35 by macrodilution method
Staphylococcus aureus [15] = experiment: Antimicrobial activity against vancomycin-resistant Staphylococcus aureus 510 measured on day 10 by macrodilution method; conditions: Staphylococcus aureus, 510, 240 h
Staphylococcus aureus [16] = experiment: Antimicrobial activity against vancomycin-intermediate Staphylococcus aureus 555 measured on day 5 by macrodilution method; conditions: Staphylococcus aureus, 555, 120 h
Staphylococcus aureus [17] = experiment: Antimicrobial activity against vancomycin-intermediate Staphylococcus aureus 1287 measured on day 50 by macrodilution method
Staphylococcus aureus [18] = experiment: Antimicrobial activity against vancomycin-resistant Staphylococcus aureus 509 by macrodilution method
Staphylococcus aureus [19] = experiment: Antimicrobial activity against heterogeneous vancomycin-intermediate Staphylococcus aureus 873 measured on day 25 by macrodilution method; conditions: Staphylococcus aureus, 873, 600 h
Staphylococcus aureus [20] = experiment: Antimicrobial activity against methicillin-susceptible Staphylococcus aureus 543 by macrodilution method
Staphylococcus aureus [21] = experiment: Antimicrobial activity against vancomycin-resistant Staphylococcus aureus 509 measured on day 15 by macrodilution method; conditions: Staphylococcus aureus, 509, 360 h
Staphylococcus aureus [22] = experiment: Antimicrobial activity against vancomycin-intermediate Staphylococcus aureus 1287 measured on day 40 by macrodilution method
Staphylococcus aureus [23] = experiment: Antimicrobial activity against heterogeneous vancomycin-intermediate Staphylococcus aureus 168 by macrodilution method
Staphylococcus aureus [24] = experiment: Antimicrobial activity against vancomycin-intermediate Staphylococcus aureus 1287 measured on day 25 by macrodilution method; conditions: Staphylococcus aureus, 1287, 600 h
Staphylococcus aureus [25] = experiment: Antimicrobial activity against methicillin-susceptible Staphylococcus aureus 540 measured on day 20 by macrodilution method; conditions: Staphylococcus aureus, 540, 480 h
Staphylococcus aureus [26] = experiment: Antimicrobial activity against vancomycin-resistant Staphylococcus aureus 509 after 50 passages by macrodilution method
Staphylococcus aureus [27] = experiment: Antimicrobial activity against methicillin-susceptible Staphylococcus aureus 543 measured on day 25 by macrodilution method; conditions: Staphylococcus aureus, 543, 600 h
Staphylococcus aureus [28] = experiment: Antimicrobial activity against heterogeneous vancomycin-intermediate Staphylococcus aureus 168 measured on day 30 by macrodilution method
Staphylococcus aureus [29] = experiment: Antimicrobial activity against heterogeneous vancomycin-intermediate Staphylococcus aureus 168 measured on day 50 by macrodilution method
Staphylococcus aureus [30] = experiment: Antimicrobial activity against methicillin-susceptible Staphylococcus aureus 543 measured on day 35 by macrodilution method
Staphylococcus aureus [31] = experiment: Antimicrobial activity against vancomycin-resistant Staphylococcus aureus 509 measured on day 45 by macrodilution method
Staphylococcus aureus [32] = experiment: Antimicrobial activity against heterogeneous vancomycin-intermediate Staphylococcus aureus 873 measured on day 35 by macrodilution method
Staphylococcus aureus [33] = experiment: Antimicrobial activity against methicillin-resistant Staphylococcus aureus 525 measured on day 40 by macrodilution method
Staphylococcus aureus [34] = experiment: Antimicrobial activity against methicillin-susceptible Staphylococcus aureus 540 measured after 10 antibiotic-free subculturing by macrodilution method
Staphylococcus aureus [35] = experiment: Antimicrobial activity against heterogeneous vancomycin-intermediate Staphylococcus aureus 873 by macrodilution method
Staphylococcus aureus [36] = experiment: Antimicrobial activity against methicillin-resistant Staphylococcus aureus 525 measured on day 25 by macrodilution method; conditions: Staphylococcus aureus, 525, 600 h
Staphylococcus aureus [37] = experiment: Antimicrobial activity against vancomycin-resistant Staphylococcus aureus 509 measured after 10 antibiotic-free subculturing by macrodilution method
Staphylococcus aureus [38] = experiment: Antimicrobial activity against vancomycin-intermediate Staphylococcus aureus 555 after 27 passages by macrodilution method
Staphylococcus aureus [39] = experiment: Antimicrobial activity against vancomycin-intermediate Staphylococcus aureus 1287 after 18 passages by macrodilution method
Staphylococcus aureus [40] = experiment: Antimicrobial activity against vancomycin-resistant Staphylococcus aureus 509 measured on day 40 by macrodilution method
Staphylococcus aureus [41] = experiment: Antimicrobial activity against methicillin-resistant Staphylococcus aureus 547 measured on day 30 by macrodilution method
Staphylococcus aureus [42] = experiment: Antimicrobial activity against methicillin-susceptible Staphylococcus aureus 540 by macrodilution method
Staphylococcus aureus [43] = experiment: Antimicrobial activity against methicillin-susceptible Staphylococcus aureus 543 measured on day 40 by macrodilution method
Staphylococcus aureus [44] = experiment: Antimicrobial activity against vancomycin-intermediate Staphylococcus aureus 1287 measured on day 30 by macrodilution method
Staphylococcus aureus [45] = experiment: Antimicrobial activity against methicillin-susceptible Staphylococcus aureus 540 after 49 passages by macrodilution method
Staphylococcus aureus [46] = experiment: Antimicrobial activity against heterogeneous vancomycin-intermediate Staphylococcus aureus 873 measured on day 30 by macrodilution method
Staphylococcus aureus [47] = experiment: Antimicrobial activity against heterogeneous vancomycin-intermediate Staphylococcus aureus 873 measured on day 5 by macrodilution method; conditions: Staphylococcus aureus, 873, 120 h
Staphylococcus aureus [48] = experiment: Antimicrobial activity against vancomycin-intermediate Staphylococcus aureus 555 measured on day 35 by macrodilution method
Staphylococcus aureus [49] = experiment: Antimicrobial activity against methicillin-susceptible Staphylococcus aureus 543 measured on day 5 by macrodilution method; conditions: Staphylococcus aureus, 543, 120 h
Staphylococcus aureus [50] = experiment: Antimicrobial activity against heterogeneous vancomycin-intermediate Staphylococcus aureus 168 measured on day 15 by macrodilution method; conditions: Staphylococcus aureus, 168, 360 h
Staphylococcus aureus [51] = experiment: Antimicrobial activity against methicillin-susceptible Staphylococcus aureus 540 measured on day 45 by macrodilution method
Staphylococcus aureus [52] = experiment: Antimicrobial activity against heterogeneous vancomycin-intermediate Staphylococcus aureus 168 measured on day 35 by macrodilution method

C[C@H]1C=C(c2csc(SC3=C(C(=O)O)N4C(=O)[C@H]([C@@H](C)O)[C@H]4[C@H]3C)n2)CN1 [RAZUPENEM]
MIC (Staphylococcus aureus [1]): 0.25 µg/mL (≈ 0.613 µM) | MIC (Staphylococcus aureus [2]): 8 µg/mL (≈ 19.6 µM) | MIC (Staphylococcus aureus [3]): 16 µg/mL (≈ 39.3 µM) | MIC (Staphylococcus aureus [4]): 4 µg/mL (≈ 9.82 µM) | MIC (Staphylococcus aureus [5]): 2 µg/mL (≈ 4.91 µM) | MIC (Staphylococcus aureus [6]): 4 µg/mL (≈ 9.82 µM) | MIC (Staphylococcus aureus [7]): 0.125 µg/mL (≈ 0.307 µM) | MIC (Staphylococcus aureus [8]): 0.03 µg/mL (≈ 0.0736 µM) | MIC (Staphylococcus aureus [9]): 4 µg/mL (≈ 9.82 µM) | MIC (Staphylococcus aureus [10]): 8 µg/mL (≈ 19.6 µM) | MIC (Staphylococcus aureus [11]): 2 µg/mL (≈ 4.91 µM) | MIC (Staphylococcus aureus [12]): 16 µg/mL (≈ 39.3 µM) | MIC (Staphylococcus aureus [13]): 8 µg/mL (≈ 19.6 µM) | MIC (Staphylococcus aureus [14]): 16 µg/mL (≈ 39.3 µM) | MIC (Staphylococcus aureus [15]): 2 µg/mL (≈ 4.91 µM) | MIC (Staphylococcus aureus [16]): 1 µg/mL (≈ 2.45 µM) | MIC (Staphylococcus aureus [17]): 4 µg/mL (≈ 9.82 µM) | MIC (Staphylococcus aureus [18]): 2 µg/mL (≈ 4.91 µM) | MIC (Staphylococcus aureus [19]): 8 µg/mL (≈ 19.6 µM) | MIC (Staphylococcus aureus [20]): 0.016 µg/mL (≈ 0.0393 µM) | MIC (Staphylococcus aureus [21]): 2 µg/mL (≈ 4.91 µM) | MIC (Staphylococcus aureus [22]): 2 µg/mL (≈ 4.91 µM) | MIC (Staphylococcus aureus [23]): 4 µg/mL (≈ 9.82 µM) | MIC (Staphylococcus aureus [24]): 0.5 µg/mL (≈ 1.23 µM) | MIC (Staphylococcus aureus [25]): 0.03 µg/mL (≈ 0.0736 µM) | MIC (Staphylococcus aureus [26]): 4 µg/mL (≈ 9.82 µM) | MIC (Staphylococcus aureus [27]): 0.03 µg/mL (≈ 0.0736 µM) | MIC (Staphylococcus aureus [28]): 8 µg/mL (≈ 19.6 µM) | MIC (Staphylococcus aureus [29]): 8 µg/mL (≈ 19.6 µM) | MIC (Staphylococcus aureus [30]): 0.06 µg/mL (≈ 0.147 µM) | MIC (Staphylococcus aureus [31]): 4 µg/mL (≈ 9.82 µM) | MIC (Staphylococcus aureus [32]): 16 µg/mL (≈ 39.3 µM) | MIC (Staphylococcus aureus [33]): 16 µg/mL (≈ 39.3 µM) | MIC (Staphylococcus aureus [34]): 0.016 µg/mL (≈ 0.0393 µM) | MIC (Staphylococcus aureus [35]): 2 µg/mL (≈ 4.91 µM) | MIC (Staphylococcus aureus [36]): 4 µg/mL (≈ 9.82 µM) | MIC (Staphylococcus aureus [37]): 1 µg/mL (≈ 2.45 µM) | MIC (Staphylococcus aureus [38]): 4 µg/mL (≈ 9.82 µM) | MIC (Staphylococcus aureus [39]): 0.5 µg/mL (≈ 1.23 µM) | MIC (Staphylococcus aureus [40]): 4 µg/mL (≈ 9.82 µM) | MIC (Staphylococcus aureus [41]): 2 µg/mL (≈ 4.91 µM) | MIC (Staphylococcus aureus [42]): 0.016 µg/mL (≈ 0.0393 µM) | MIC (Staphylococcus aureus [43]): 0.06 µg/mL (≈ 0.147 µM) | MIC (Staphylococcus aureus [44]): 16 µg/mL (≈ 39.3 µM) | MIC (Staphylococcus aureus [45]): 0.125 µg/mL (≈ 0.307 µM) | MIC (Staphylococcus aureus [46]): 8 µg/mL (≈ 19.6 µM) | MIC (Staphylococcus aureus [47]): 2 µg/mL (≈ 4.91 µM) | MIC (Staphylococcus aureus [48]): 4 µg/mL (≈ 9.82 µM) | MIC (Staphylococcus aureus [49]): 0.03 µg/mL (≈ 0.0736 µM) | MIC (Staphylococcus aureus [50]): 8 µg/mL (≈ 19.6 µM) | MIC (Staphylococcus aureus [51]): 0.06 µg/mL (≈ 0.147 µM) | MIC (Staphylococcus aureus [52]): 8 µg/mL (≈ 19.6 µM)

— ChEMBL document CHEMBL1649524, “Resistance selection studies comparing the activity of razupenem (PTZ601) to vancomycin and linezolid against eight methicillin-resistant and two methicillin-susceptible Staphylococcus aureus strains” (2009)
